Assay results: patent US20030103863A1, “High pressure sterilising of sensitive active principles” (priority 2000, published 2003)

Tests used:
[1] = HPLC purity after high pressure treatment; type: physicochemical; conditions: powder, high pressure treatment at 5,000 bars
Protocol: Complementary tests were conducted to show the harmlessness of the treatment by high pressure on the fragile elements. In this case, these elements were placed in solution or in the form of powder.
a) The peptide, in this case Gramicidin, is subjected to a high pressure treatment at 5,000 bars, and its purity was also tested by HPLC, the variations remaining less than 1%. The high pressures have no influence on the structure.

[2] = HPLC chromatography of insulin after high pressure treatment; type: physicochemical; conditions: 4,000, 5,000 and 6,000 bars for 10 minutes, ambient temperature and −20° C.; analyzed at 214 nm
Protocol: b) Insulin was selected at 40 UI, commercial form, and diluted to {fraction (1/100 )} at pH 2.5. For the measurement, passage is carried out with a flow rate of 1 ml/min in an HPLC (High Pressure Liquid Chromatography) apparatus.
Different specimens were subjected, at ambient temperature and at a negative temperature of −20° C., to:
atmospheric pressure for the standard,
5,000 bars for 10 minutes, and
The specimens, after treatment, are then analyzed at 214 nm in a chromatographic apparatus with automatic injection.

Substance	variations of purity by HPLC [1]	modifications or alterations of the structure (HPLC curves vs standard at atmospheric pressure) [2]
gramicidin	less than 1%	
insulin		no noticeable modifications or alterations
